Experiment [1] in a line: Stimulation of growth hormone in rat pituitary cell. The class given is functional, cell-based. The conditions noted are these: pituitary gland cell.
Experiment [2] concerns Canis familiaris. Description: Effect on growth hormone release in Beagle dog assessed as increase of GH level at 0.01 mg/kg, iv relative to basal level. Type of experiment: functional, Canis lupus familiaris.
The subject of experiment [3] is Canis familiaris. Nature of the experiment: Effect on growth hormone release in Beagle dog assessed as increase of GH level at 0.06 mg/kg, po relative to basal level. Type of experiment: functional, Canis lupus familiaris.
The test system of experiment [4] is Canis familiaris. Nature of the experiment: Effect on growth hormone release in Beagle dog assessed as increase of GH level at 0.25 mg/kg, po relative to basal level. The class given is functional, Canis lupus familiaris.
Experiment [5] has as its system Canis familiaris. Nature of the experiment: Effect on growth hormone release in Beagle dog assessed as increase of GH level at 0.50 mg/kg, po relative to basal level. Type of experiment: functional, Canis lupus familiaris. The note with it: dose 0.5 mg/kg.

The term EC50 denotes the concentration that produces a half-maximal response. Lower therefore signals higher potency in that assay. For the compound `CC(C)(N)C(=O)N[C@H](CCCc1ccccc1)C(=O)N1CCC2(CC1)C[C@H](C(=O)NCCCCO)c1ccccc12`, the EC50 in experiment [1] is 0.73 nM.

In experiment [1], `CCCNC(=O)[C@@H]1CC2(CCN(C(=O)[C@@H](CCCc3ccccc3)NC(=O)C(C)(C)N)CC2)c2ccccc21.Cl` yielded a half-maximal effective concentration (EC50) of 0.15 nM. Moreover, the Fold change in experiment [2] and in experiment [3] was 4 throughout.

The compound `CC(C)(N)C(=O)N[C@H](CCCc1ccccc1)C(=O)N1CCC2(CC1)C[C@@H](C(=O)NCCCO)c1ccccc12` yielded an EC50 in experiment [1] of 0.41 nM.

`CC(C)(N)C(=O)N[C@H](CCCc1ccccc1)C(=O)N1CCC2(CC1)C[C@H](C(=O)NCCO)c1ccccc12`: a half-maximal effect in experiment [1] (EC50) was put at 0.45 nM.

In turn, `C=CCNC(=O)[C@@H]1CC2(CCN(C(=O)[C@@H](CCCc3ccccc3)NC(=O)C(C)(C)N)CC2)c2ccccc21` registered an EC50 in experiment [1] of 0.14 nM.

In the case of `CNC(=O)[C@@H]1CC2(CCN(C(=O)[C@@H](CCCc3ccccc3)NC(=O)C(C)(C)N)CC2)c2ccccc21`, the EC50 in experiment [1] was 0.4 nM.

Regarding `CC(C)(N)C(=O)N[C@H](CCCc1ccccc1)C(=O)N1CCC2(CC1)C[C@@H](C(=O)NCCNS(C)(=O)=O)c1ccccc12`, the EC50 in experiment [1] is 0.21 nM.

Turning to `CC(C)(N)C(=O)N[C@H](CCCc1ccccc1)C(=O)N1CCC2(CC1)C[C@@H](C(=O)Nc1ccccc1)c1ccccc12`, the EC50 in experiment [1] stood at 1.2 nM.

For the compound `CC(C)NC(=O)[C@@H]1CC2(CCN(C(=O)[C@@H](CCCc3ccccc3)NC(=O)C(C)(C)N)CC2)c2ccccc21`, the EC50 in experiment [1] amounted to 0.3 nM.

Take `CNC(=O)[C@H]1CC2(CCN(C(=O)[C@@H](CCCc3ccccc3)NC(=O)C(C)(C)N)CC2)c2ccccc21`: the EC50 in experiment [1] is 3.8 nM.

In the case of `CC(C)(N)C(=O)N[C@H](COCc1ccccc1)C(=O)N1CCC2(CC1)CN(S(C)(=O)=O)c1ccccc12` [IBUTAMOREN], the half-maximal effective concentration (EC50) in experiment [1] came to 1.5 nM.

The compound `CC(C)(N)C(=O)N[C@H](CCCc1ccccc1)C(=O)N1CCC2(CC1)C[C@@H](C(=O)NCCCCO)c1ccccc12` yielded an EC50 in experiment [1] of 0.44 nM.

`CC(C)(N)C(=O)N[C@H](CCCc1ccccc1)C(=O)N1CCC2(CC1)C[C@@H](C(N)=O)c1ccccc12.Cl` showed an EC50 in experiment [1] of 0.09 nM. Moreover, the Fold change in experiment [4] came out at 4.

The compound `CC(C)(N)C(=O)N[C@H](CCCc1ccccc1)C(=O)N1CCC2(CC1)C[C@@H](C(=O)NCCO)c1ccccc12.Cl` came in with an EC50 in experiment [1] of 0.51 nM. Moreover, the Fold change in experiment [5] came to 4.

`CC(C)(N)C(=O)N[C@H](CCCc1ccccc1)C(=O)N1CCC2(CC1)C[C@H](C(=O)NCCCO)c1ccccc12` displayed an EC50 in experiment [1] of 0.85 nM.

For the compound `CC(C)(N)C(=O)N[C@H](CCCc1ccccc1)C(=O)N1CCC2(CC1)C[C@H](C(N)=O)c1ccccc12`, the half-maximal effective concentration (EC50) in experiment [1] was 0.35 nM.

In turn, `CCNC(=O)[C@@H]1CC2(CCN(C(=O)[C@@H](CCCc3ccccc3)NC(=O)C(C)(C)N)CC2)c2ccccc21` registered an EC50 in experiment [1] of 0.9 nM.

The compound `CCNC(=O)[C@H]1CC2(CCN(C(=O)[C@@H](CCCc3ccccc3)NC(=O)C(C)(C)N)CC2)c2ccccc21` came in with an EC50 in experiment [1] of 2.1 nM.

Values taken from ChEMBL document CHEMBL1145360, “Highly potent growth hormone secretagogues” (Bioorg Med Chem Lett, 2007).
